Here are results for three compounds from PMC4457528, “Identification of Novel Small Molecule Inhibitors of Oncogenic RET Kinase” (PLoS ONE, 2015).

SMILES strings stand for the structures. Like-named read-outs stand apart in the source and are kept apart here.

Assay in all cases: KinomeScan kinase panel, single concentration 10 µM
What all share (format): binding

For assay [1], the target named is T1, KinomeScan kinase panel (Homo sapiens, UniProt Q99640).
T1 construct: purchased DiscoveRx (KinomeScan)
T1 sequence (Q99640 1-499): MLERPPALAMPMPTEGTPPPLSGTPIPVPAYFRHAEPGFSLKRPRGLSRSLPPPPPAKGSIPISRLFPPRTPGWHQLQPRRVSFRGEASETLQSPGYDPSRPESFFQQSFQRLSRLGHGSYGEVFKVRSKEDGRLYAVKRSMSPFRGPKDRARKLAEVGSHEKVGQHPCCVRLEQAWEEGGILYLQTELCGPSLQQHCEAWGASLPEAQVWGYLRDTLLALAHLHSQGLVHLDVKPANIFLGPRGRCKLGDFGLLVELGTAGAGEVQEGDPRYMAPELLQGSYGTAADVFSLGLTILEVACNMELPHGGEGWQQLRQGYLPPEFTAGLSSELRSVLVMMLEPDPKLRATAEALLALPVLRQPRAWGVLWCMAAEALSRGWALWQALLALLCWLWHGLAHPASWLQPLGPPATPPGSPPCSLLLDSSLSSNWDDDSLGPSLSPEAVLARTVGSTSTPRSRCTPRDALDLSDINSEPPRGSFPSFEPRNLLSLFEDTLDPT
The note with it: PKMYT1, 10 µM.

In assay [2] the target is T2, KinomeScan kinase panel (Homo sapiens, UniProt Q96GD4).
T2 construct: purchased DiscoveRx (KinomeScan)
The note with it: AURKB, 10 µM; read-out: score (%).

Assay [3] deals with T3, KinomeScan kinase panel (Homo sapiens, UniProt Q9P0L2).
T3 construct: purchased DiscoveRx (KinomeScan)
Particulars: MARK1, 10 µM; read-out: score (%).

Assay [4] deals with T4, KinomeScan kinase panel (Homo sapiens, UniProt P42336, E545K).
T4 construct: purchased DiscoveRx (KinomeScan)
Particulars: PIK3CA(E545K), 10 µM; read-out: score (%).

Assay [5] concerns the target T5, KinomeScan kinase panel (Homo sapiens, UniProt Q8NEV4).
T5 construct: purchased DiscoveRx (KinomeScan)
The note with it: MYO3A, 10 µM; read-out: score (%).

Assay [6] concerns the target T6, KinomeScan kinase panel (Homo sapiens, UniProt P0C264).
T6 construct: purchased DiscoveRx (KinomeScan)
T6 sequence (P0C264 1-359): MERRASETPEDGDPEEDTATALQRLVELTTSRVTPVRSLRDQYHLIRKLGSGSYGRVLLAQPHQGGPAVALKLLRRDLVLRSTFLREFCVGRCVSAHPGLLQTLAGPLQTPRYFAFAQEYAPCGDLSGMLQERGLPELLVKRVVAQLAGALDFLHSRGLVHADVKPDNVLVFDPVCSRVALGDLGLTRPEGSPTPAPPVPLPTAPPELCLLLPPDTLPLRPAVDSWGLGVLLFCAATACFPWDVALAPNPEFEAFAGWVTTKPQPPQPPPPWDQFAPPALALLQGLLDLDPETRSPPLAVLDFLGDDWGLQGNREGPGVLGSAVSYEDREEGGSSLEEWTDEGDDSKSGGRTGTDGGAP
The note with it: read-out: score (%).

Assay [7] addresses T7, KinomeScan kinase panel (Homo sapiens, UniProt Q8N752).
T7 construct: purchased DiscoveRx (KinomeScan)
T7 sequence (Q8N752 1-337): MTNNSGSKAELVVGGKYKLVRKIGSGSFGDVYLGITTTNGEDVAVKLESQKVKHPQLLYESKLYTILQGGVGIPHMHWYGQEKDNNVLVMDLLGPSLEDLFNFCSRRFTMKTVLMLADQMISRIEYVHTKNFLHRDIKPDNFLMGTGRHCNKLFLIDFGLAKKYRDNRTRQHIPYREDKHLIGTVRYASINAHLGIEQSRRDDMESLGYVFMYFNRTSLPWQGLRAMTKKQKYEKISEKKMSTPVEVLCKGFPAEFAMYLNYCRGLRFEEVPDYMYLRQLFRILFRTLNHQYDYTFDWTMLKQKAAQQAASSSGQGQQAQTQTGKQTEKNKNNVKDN
The note with it: CSNK1A1L, 10 µM; read-out: score (%).

Assay [8] concerns the target T8, KinomeScan kinase panel (Homo sapiens, UniProt Q96SB4).
T8 construct: purchased DiscoveRx (KinomeScan)
The note with it: read-out: score (%).

For assay [9], the target named is T9, KinomeScan kinase panel (Homo sapiens, UniProt Q8IWQ3).
T9 construct: purchased DiscoveRx (KinomeScan)
T9 sequence (Q8IWQ3 1-736): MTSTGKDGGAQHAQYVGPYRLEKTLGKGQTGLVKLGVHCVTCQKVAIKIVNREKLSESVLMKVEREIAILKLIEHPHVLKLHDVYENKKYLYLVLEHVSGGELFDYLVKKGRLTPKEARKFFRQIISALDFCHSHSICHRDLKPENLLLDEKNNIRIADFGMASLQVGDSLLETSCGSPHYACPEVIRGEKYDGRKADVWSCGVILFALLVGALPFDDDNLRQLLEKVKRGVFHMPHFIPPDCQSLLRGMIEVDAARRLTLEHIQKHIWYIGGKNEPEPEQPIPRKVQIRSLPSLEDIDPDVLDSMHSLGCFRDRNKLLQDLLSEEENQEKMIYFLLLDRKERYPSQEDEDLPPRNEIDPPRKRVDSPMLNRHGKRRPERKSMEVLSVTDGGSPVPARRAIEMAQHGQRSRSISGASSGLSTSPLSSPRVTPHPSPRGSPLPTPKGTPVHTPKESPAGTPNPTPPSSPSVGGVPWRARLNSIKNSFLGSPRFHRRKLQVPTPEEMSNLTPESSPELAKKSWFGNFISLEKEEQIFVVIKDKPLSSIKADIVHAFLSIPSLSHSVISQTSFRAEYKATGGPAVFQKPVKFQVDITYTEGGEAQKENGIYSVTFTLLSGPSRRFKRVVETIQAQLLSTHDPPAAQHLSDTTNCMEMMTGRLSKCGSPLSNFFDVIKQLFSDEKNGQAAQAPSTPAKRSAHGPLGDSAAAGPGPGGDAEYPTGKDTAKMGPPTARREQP
Particulars: BRSK2, 10 µM; read-out: score (%).

Assay [10] concerns the target T10, KinomeScan kinase panel (Homo sapiens, UniProt P14616).
T10 construct: purchased DiscoveRx (KinomeScan)
The note with it: INSRR, 10 µM; read-out: score (%).

Assay [11] has as its target T11, KinomeScan kinase panel (Homo sapiens, UniProt Q8N5S9).
T11 construct: purchased DiscoveRx (KinomeScan)
The note with it: CAMKK1, 10 µM; read-out: score (%).

Assay [12] addresses T12, KinomeScan kinase panel (Homo sapiens, UniProt P00533, L861Q).
T12 construct: purchased DiscoveRx (KinomeScan)
Particulars: EGFR(L861Q), 10 µM.

The target of assay [13] is T13, KinomeScan kinase panel (Homo sapiens, UniProt P51451).
T13 construct: purchased DiscoveRx (KinomeScan)
Particulars: BLK, 10 µM; read-out: score (%).

The target of assay [14] is T14, KinomeScan kinase panel (Homo sapiens, UniProt Q9BYT3).
T14 construct: purchased DiscoveRx (KinomeScan)
The note with it: read-out: score (%).

T3 sequence (Q9P0L2 whole entry): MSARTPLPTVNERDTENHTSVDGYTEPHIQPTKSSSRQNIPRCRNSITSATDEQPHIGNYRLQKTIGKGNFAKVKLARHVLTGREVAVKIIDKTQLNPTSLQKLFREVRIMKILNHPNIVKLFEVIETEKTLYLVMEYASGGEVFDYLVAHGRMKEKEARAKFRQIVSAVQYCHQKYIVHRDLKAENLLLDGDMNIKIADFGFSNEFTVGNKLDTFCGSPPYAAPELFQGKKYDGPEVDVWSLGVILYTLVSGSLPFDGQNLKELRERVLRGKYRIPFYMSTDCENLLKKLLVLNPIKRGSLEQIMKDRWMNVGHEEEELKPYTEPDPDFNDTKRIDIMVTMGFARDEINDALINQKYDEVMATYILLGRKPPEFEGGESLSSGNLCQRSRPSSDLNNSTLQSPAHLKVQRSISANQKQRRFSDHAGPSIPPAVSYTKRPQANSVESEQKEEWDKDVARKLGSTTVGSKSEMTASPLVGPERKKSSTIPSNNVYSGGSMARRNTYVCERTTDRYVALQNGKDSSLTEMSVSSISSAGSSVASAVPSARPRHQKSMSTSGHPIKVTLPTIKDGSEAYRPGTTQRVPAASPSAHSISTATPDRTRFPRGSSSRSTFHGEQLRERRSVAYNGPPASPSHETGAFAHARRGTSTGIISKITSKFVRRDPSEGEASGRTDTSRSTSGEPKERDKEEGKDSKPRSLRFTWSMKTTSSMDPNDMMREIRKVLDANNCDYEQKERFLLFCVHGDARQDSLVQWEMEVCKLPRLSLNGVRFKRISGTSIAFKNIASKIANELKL
T8 sequence (Q96SB4 whole entry): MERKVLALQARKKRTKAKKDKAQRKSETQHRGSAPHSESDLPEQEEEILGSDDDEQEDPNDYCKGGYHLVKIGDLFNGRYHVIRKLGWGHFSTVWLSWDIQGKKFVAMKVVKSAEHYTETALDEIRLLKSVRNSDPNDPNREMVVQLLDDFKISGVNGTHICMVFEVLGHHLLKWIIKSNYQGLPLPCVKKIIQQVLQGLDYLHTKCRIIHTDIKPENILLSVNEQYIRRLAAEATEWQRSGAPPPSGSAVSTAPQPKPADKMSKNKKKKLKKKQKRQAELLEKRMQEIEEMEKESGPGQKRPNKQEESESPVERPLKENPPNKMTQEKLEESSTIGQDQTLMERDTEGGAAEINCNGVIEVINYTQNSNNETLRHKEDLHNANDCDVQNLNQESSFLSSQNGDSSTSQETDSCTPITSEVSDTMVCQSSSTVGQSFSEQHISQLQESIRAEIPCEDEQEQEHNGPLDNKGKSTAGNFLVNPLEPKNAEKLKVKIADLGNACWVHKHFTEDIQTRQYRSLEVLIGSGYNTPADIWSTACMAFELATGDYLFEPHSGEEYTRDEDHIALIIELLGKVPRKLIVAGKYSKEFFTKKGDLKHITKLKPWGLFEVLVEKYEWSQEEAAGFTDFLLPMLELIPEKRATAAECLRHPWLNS
T5 sequence (Q8NEV4 whole entry): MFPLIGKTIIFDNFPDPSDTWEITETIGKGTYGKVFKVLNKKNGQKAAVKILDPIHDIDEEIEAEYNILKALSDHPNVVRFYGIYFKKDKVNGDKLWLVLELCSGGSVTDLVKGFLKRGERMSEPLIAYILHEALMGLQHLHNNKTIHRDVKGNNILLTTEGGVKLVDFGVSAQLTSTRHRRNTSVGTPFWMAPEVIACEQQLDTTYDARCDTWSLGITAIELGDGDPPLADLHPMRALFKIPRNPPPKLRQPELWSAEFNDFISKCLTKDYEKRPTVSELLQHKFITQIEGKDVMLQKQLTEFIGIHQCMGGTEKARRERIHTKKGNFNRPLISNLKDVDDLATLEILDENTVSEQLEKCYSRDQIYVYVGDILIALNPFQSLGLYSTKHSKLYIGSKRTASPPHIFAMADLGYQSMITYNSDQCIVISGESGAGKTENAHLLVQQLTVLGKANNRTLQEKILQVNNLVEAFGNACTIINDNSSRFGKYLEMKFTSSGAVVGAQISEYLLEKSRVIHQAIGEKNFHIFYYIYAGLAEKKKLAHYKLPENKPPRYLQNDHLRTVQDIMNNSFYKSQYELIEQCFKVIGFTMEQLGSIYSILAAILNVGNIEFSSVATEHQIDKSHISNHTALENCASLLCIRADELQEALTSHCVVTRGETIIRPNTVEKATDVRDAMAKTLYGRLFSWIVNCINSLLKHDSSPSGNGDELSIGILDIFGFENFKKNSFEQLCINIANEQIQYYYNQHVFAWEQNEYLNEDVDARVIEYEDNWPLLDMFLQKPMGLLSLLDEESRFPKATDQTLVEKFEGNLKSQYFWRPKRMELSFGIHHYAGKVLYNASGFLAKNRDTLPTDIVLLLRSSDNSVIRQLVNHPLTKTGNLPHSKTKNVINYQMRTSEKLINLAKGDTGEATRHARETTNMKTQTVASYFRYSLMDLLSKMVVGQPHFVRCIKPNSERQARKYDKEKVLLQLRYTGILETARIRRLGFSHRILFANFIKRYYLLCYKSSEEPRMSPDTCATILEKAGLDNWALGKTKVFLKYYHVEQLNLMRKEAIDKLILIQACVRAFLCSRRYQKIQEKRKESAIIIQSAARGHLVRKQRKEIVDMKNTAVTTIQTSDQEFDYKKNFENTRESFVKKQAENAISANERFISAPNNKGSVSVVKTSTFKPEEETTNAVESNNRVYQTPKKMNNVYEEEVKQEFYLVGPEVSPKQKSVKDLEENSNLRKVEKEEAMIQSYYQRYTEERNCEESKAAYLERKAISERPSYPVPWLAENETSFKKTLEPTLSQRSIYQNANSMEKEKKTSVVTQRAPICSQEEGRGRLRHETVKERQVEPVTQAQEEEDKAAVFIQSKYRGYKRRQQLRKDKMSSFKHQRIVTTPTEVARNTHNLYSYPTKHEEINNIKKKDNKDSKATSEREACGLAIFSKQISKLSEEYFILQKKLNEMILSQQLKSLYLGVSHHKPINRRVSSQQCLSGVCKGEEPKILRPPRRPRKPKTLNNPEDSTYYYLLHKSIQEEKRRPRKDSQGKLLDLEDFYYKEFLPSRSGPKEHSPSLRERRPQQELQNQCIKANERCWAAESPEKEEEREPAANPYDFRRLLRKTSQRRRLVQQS
T10 sequence (P14616 27-1297): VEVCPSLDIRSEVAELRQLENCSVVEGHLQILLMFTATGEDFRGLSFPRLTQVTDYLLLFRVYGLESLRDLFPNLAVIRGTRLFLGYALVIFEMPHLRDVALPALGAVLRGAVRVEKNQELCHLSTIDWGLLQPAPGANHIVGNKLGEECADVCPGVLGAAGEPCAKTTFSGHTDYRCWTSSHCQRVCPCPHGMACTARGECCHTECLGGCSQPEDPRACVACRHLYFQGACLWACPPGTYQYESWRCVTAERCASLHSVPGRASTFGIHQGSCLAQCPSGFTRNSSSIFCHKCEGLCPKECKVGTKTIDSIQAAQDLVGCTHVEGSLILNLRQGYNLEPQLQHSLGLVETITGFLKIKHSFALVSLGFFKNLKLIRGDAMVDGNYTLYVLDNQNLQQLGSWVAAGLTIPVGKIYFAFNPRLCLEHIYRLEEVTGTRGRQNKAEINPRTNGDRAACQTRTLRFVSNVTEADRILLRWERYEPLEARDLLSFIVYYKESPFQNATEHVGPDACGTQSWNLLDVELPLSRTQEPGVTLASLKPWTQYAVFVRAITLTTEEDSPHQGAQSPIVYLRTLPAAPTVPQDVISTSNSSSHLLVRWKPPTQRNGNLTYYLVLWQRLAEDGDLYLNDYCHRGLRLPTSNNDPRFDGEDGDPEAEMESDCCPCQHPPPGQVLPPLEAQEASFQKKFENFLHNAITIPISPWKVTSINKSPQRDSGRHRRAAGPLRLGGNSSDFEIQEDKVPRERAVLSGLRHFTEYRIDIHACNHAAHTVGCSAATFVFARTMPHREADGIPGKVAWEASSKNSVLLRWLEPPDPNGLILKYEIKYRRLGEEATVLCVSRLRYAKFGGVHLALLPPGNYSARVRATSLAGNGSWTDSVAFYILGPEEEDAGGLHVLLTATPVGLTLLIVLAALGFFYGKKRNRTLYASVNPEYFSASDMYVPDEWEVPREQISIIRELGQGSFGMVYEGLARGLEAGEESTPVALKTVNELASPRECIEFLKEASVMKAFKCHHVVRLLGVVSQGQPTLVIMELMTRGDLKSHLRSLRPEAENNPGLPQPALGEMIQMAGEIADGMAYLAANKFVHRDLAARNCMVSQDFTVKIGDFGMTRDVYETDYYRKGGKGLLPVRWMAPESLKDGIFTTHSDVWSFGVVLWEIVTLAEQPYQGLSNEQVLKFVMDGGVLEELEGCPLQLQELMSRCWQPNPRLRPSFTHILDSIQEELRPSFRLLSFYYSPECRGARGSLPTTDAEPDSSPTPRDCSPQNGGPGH
T2 sequence (Q96GD4 whole entry): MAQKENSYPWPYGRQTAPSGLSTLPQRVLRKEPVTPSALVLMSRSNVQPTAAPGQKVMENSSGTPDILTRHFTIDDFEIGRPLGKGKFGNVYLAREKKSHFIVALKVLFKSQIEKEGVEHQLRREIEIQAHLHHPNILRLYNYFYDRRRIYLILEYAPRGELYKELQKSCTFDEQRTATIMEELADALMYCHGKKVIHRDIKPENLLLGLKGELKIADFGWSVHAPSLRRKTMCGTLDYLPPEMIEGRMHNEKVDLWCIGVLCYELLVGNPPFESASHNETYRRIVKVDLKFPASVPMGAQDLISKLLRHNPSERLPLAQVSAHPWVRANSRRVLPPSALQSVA

Regarding `CCN1CCN(Cc2ccc(NC(=O)c3ccc(C)c(NC(=O)c4cncc(-c5cccs5)c4)c3)cc2C(F)(F)F)CC1` [ALW-II-41-27], the “score (%)” value in assay [1] is “nb (Hits values higher than 30% were considered negative (no binding: nb))”; in assay [12], 0%. Besides, the remaining binding at 10 µM is over 30% in assay [2]; over 30% in assay [3]; over 30% in assay [4]; 17% in assay [5]; over 30% in [6] (kinase SgK110, 10 µM); over 30% in [7]. In addition, the remaining binding at 10 µM is over 30% in [8] (kinase SRPK1, 10 µM); over 30% in assay [9]; 8.8% in [10]; 33% in assay [11]; 0.1% in [13]; over 30% in assay [14] (kinase STK33, 10 µM).
Turning to `CCN1CCN(Cc2ccc(NC(=O)c3ccc(C)c(/C=C/c4cnc5[nH]ccc5c4Cl)c3)cc2C(F)(F)F)CC1` [HG-6-63-01, (E)-3-(2-(4-chloro-1H-pyrrolo[2,3-b]pyridin-5-yl)vinyl)-N-(4-((4-ethylpiperazin-1-yl)methyl)-3-(trifluoromethyl)phenyl)-4-methylbenzamide], the “score (%)” value in assay [1] is given as “nb (Hits values higher than 30% were considered negative (no binding: nb))”; in assay [12] it was 0%. Further, the remaining binding at 10 µM in assay [2] was 6.6%; in [3], over 30%; in assay [4], over 30%; in assay [5], over 30%; in assay [6] (SgK110, 10 µM), 29%; in assay [7] it was over 30%. The remaining binding at 10 µM in [8] (SRPK1, 10 µM) is 0.25%; in [9] it was over 30%; in assay [10] it was over 30%; in assay [11], over 30%; in [13], 0.2%; in assay [14] (STK33, 10 µM) it was 23%.
For the compound `CCN1CCN(Cc2ccc(NC(=O)c3ccc(C)c(C#Cc4cccnc4)c3)cc2C(F)(F)F)CC1` [XMD15-44], the “score (%)” value in assay [1] is 85%; in assay [12], 0.2%. For the same compound, the remaining binding at 10 µM is 24% in [2]; over 30% in [3]; 85% in assay [4]; 3.2% in [5]; 100% in [6] (kinase SgK110, 10 µM); over 30% in assay [7]. Moreover, the remaining binding at 10 µM in [8] (kinase SRPK1, 10 µM) was 100%; in assay [9] it was over 30%; in assay [10], over 30%; in assay [11], over 30%; in assay [13], 0%; in assay [14] (kinase STK33, 10 µM), 14%.
